Reference: patent US9951055B2, “Thiazole-based inhibitors of scavenger receptor BI” (THE BROAD INSTITUTE, INC., priority 2012, dated 2018)
Positions count from the first letter of the chain named. pIC50: −log10 of the molar value. Where two headings read alike, the source gives them in different places.

Assays:
C384S SR-BI = biological target: T1, C384S SR-BI (Mus musculus, UniProt Q61009, C384S); test: Radioactive HDL uptake assay (mutant SR-BI); assay type: cell-based, murine
T1 construct: expressed in transfected cells; host or cells: CHO cell line lacking LDL receptors (variant of ldlA[mSR-BI])
T1 sequence (Q61009 1-509 C384S): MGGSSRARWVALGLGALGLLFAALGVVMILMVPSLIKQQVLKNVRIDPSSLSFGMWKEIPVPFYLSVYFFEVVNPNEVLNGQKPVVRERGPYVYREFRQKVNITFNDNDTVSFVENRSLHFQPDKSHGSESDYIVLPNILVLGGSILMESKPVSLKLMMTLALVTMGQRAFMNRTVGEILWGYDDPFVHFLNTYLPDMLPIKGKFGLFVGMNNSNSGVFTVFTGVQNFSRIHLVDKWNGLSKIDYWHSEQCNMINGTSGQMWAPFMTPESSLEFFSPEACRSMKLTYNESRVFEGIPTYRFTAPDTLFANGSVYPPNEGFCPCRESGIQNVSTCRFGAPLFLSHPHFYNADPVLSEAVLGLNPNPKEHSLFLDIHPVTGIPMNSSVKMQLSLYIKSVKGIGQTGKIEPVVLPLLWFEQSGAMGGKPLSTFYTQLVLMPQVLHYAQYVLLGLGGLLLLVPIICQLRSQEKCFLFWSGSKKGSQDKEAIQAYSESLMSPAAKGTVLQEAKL
Description: Radioactive HDL Uptake Assay (mutant SR-BI) (SA 9: AID No. 588837)
BLT-1 is known to interact at cysteine 384 of SR-BI (16). […] This assay is used to determine if the compounds work in a similar fashion to BLT-1 and require Cys384 to alter the binding of HDL particles and uptake of the lipid to the mutant SR-BI scavenger receptor, using an alternative means of labeling HDL-cholesterol particles and avoiding any type of fluorescence measurement. To measure this lipid uptake event, HDL particles are labeled with [^3H]cholesteryl ester and added to C384S SR-BI cells. Cells take up HDL lipids via the mutant SR-BI in 2 to 3 hours. After significant uptake of the HDL lipid, the radiolabel can be detected by liquid scintillation counting. The level of radioactivity correlates with the amount of HDL lipid uptake. The uptake of lipid from the HDL particles can be inhibited by the compound BLT-1 or when co-treated with an excess of unlabeled HDL. The mSR-BI cells utilized in the assay are a CHO cell line lacking expression of the LDL receptors and overexpressing the mutant scavenger receptor, C384S SR-BI.

Stability in PBS = assay type: physicochemical; details: PBS (1% DMSO), over 48 hours
Method: (§1) The stability of the probe in PBS (1% DMSO) was measured over 48 hours. We noticed that the concentration of the probe fluctuated through the course of the assay (data not shown). We believe that this fluctuation is due to the low solubility of the probe. Thus, we decided to determine the amount of undissolved probe present in the well after it was treated with PBS for a given length of time, relative to the amount of undissolved probe at the start of the assay. The wells were centrifuged and the supernatant was removed after various time points, then acetonitrile was added to dissolve the remaining solid in the wells, and the amount of probe was quantified. […] The stability of the probe was confirmed by measuring stability in human plasma, with >99% remaining after a 5-hour incubation period. […] FIG. 5 provides a tablular summary of Known Probe (ML278) Properties Computed from Structure.

[1] = Stability in human plasma; assay type: in vitro ADME; details: after a 5-hour incubation period
Method: as §1

SR-BI = biological target: T2, SR-BI (Mus musculus, UniProt Q61009); test: 125I-HDL binding assay; design: expressed in transfected cells
T2 sequence (Q61009 1-509): T1 sequence (Q61009 1-509 C384S) with S384C
Method: In a binding assay, ^125I-HDL binding to cells (4° C. or 37° C.) was measured for 2 h in the absence (total activity) or presence (nonspecific activity) of a 40-fold excess of unlabeled HDL. Stably transfected cells were seeded in the wells of 24-well plates (50,000 cells per well) in Ham's F12 medium containing 2 mM L-glutamine, 50 units/mL penicillin per 50 μg/mL streptomycin (medium A) supplemented with 5% (vol/vol) FBS and 0.25 mg/mL G418 (medium B) on day 0, and binding assays were performed on day 2. The cells were washed twice with prewarmed (37° C.) medium A plus 0.5% (wt/vol) BSA (medium C) prior to adding ^125I-HDL. For binding assays performed at 4° C., the assay plates were removed from the incubator, precooled for 30 min on ice in a cold room (4° C.), and then washed twice with cold (4° C.) medium C supplemented with 10 mM Hepes, pH 7.4, prior to adding ^125I-HDL. Specific binding or uptake is the difference between total and nonspecific activities. In assays using small molecule inhibitors (all incubations at 37° C.), immediately prior to incubation with ^125I-HDL, the cells were washed twice with medium A, preincubated with the small molecules for 1 h, and then incubated with radiolabeled lipoproteins as described above, all in medium C plus 0.5% (vol/vol) DMSO in the presence of the indicated concentrations of small molecules.

Row | Compound | uptake of HDL in Cys384Ser mutant background (C384S SR-BI) | stability in PBS (Stability in PBS) | stability in human plasma, remaining [1] [%] | pIC50 (SR-BI; 37° C., 1 h preincubation with compound, read-out: IC50) | pIC50 (SR-BI; range, read-out: measured range of IC50)
1 | CCCCCCC1CCCC1=NNC(N)=S (stereo not drawn) [BLT-1, reference compound] | does not significantly reduce uptake of HDL or efflux of cholesterol | – | – | – | –
2 | COCC(=O)N1CCc2cc(-c3csc(NC(=O)c4cc(OC)cc(OC)c4)n3)ccc21 [Compound 137, 3,5-Dimethoxy-N-(4-(1-(2-methoxyacetyl)indolin-5-yl)thiazol-2-yl)benzamide] | can reduce uptake and efflux in the mutant background | stable to PBS | > 99 | 8.24 | 8.22 to 9.03
